Among the data in ChEMBL document CHEMBL3045117, “Synthesis, crystal structures, insecticidal activities, and structure--activity relationships of novel N'-tert-Butyl-N'-substituted-benzoyl-N-[di(octa)hydro]benzofuran{(2,3-dihydro)benzo[1,3]([1,4])dioxine}carbohydrazide derivatives” (2011) are Activity values, retold here.

Type in all cases: functional
In assay [1] the test system is Mythimna separata. In words: Stomach toxicity against third-instar Mythimna separata (Oriental armyworm) in compound treated fresh corn leaves assessed as insecticidal activity at 200 mg/L measured after 4 days by leaf-dip method.
Assay [2] has as its system Mythimna separata. Description: Stomach toxicity against third-instar Mythimna separata (Oriental armyworm) in compound treated fresh corn leaves assessed as insecticidal activity at 100 mg/L measured after 4 days by leaf-dip method.
Assay [3] deals with Mythimna separata. In words: Stomach toxicity against third-instar Mythimna separata (Oriental armyworm) in compound treated fresh corn leaves assessed as insecticidal activity at 50 mg/L measured after 4 days by leaf-dip method.
For assay [4], the system named is Mythimna separata. Description: Stomach toxicity against third-instar Mythimna separata (Oriental armyworm) in compound treated fresh corn leaves assessed as insecticidal activity at 25 mg/L measured after 4 days by leaf-dip method.
Assay [5] deals with Mythimna separata. In words: Stomach toxicity against third-instar Mythimna separata (Oriental armyworm) in compound treated fresh corn leaves assessed as insecticidal activity at 10 mg/L measured after 4 days by leaf-dip method.
For assay [6], the system named is Spodoptera exigua. In words: Stomach toxicity against third-instar Spodoptera exigua in compound treated fresh cabbage leaves assessed as insecticidal activity at 200 mg/L measured after 3 days by leaf-dip method.
Assay [7] concerns Spodoptera exigua. Description: Stomach toxicity against third-instar Spodoptera exigua in compound treated fresh cabbage leaves assessed as insecticidal activity at 100 mg/L measured after 3 days by leaf-dip method.
Assay [8] has as its system Spodoptera exigua. In words: Stomach toxicity against third-instar Spodoptera exigua in compound treated fresh cabbage leaves assessed as insecticidal activity at 50 mg/L measured after 3 days by leaf-dip method.
In assay [9] the test system is Spodoptera exigua. Description: Stomach toxicity against third-instar Spodoptera exigua in compound treated fresh cabbage leaves assessed as insecticidal activity at 10 mg/L measured after 3 days by leaf-dip method.
Assay [10] deals with Plutella xylostella. In words: Stomach toxicity against third-instar Plutella xylostella (diamondback moth) in compound treated fresh cabbage leaves assessed as insecticidal activity at 200 mg/L measured after 3 days by leaf-dip method.
In assay [11] the test system is Plutella xylostella. Description: Stomach toxicity against third-instar Plutella xylostella (diamondback moth) in compound treated fresh cabbage leaves assessed as insecticidal activity at 100 mg/L measured after 3 days by leaf-dip method.
Assay [12] concerns Plutella xylostella. In words: Stomach toxicity against third-instar Plutella xylostella (diamondback moth) in compound treated fresh cabbage leaves assessed as insecticidal activity at 50 mg/L measured after 3 days by leaf-dip method.
Assay [13] has as its system Ostrinia nubilalis. Description: Stomach toxicity against third-instar Ostrinia nubilalis (European corn borer) in compound treated fresh corn leaves assessed as insecticidal activity at 200 mg/L measured after 4 days by leaf-dip method.

Take `Cc1cc2c(C(=O)NN(C(=O)c3ccc(Cl)cc3)C(C)(C)C)cccc2o1`: in [1], the Activity amounted to 0%.
Take `Cc1cc(C)cc(C(=O)N(NC(=O)c2ccccc2)C(C)(C)C)c1`: the Activity was determined as 100% in [1]; 100% in [2]; 100% in assay [3]; 100% in assay [4]; 80% in assay [5].
As to `Cc1cc(C)cc(C(=O)N(NC(=O)c2ccc3cc(C)oc3c2)C(C)(C)C)c1`, the Activity in assay [1] worked out at 100%; in assay [2], 100%; in assay [3], 100%; in assay [4], 100%; in assay [5], 50%; in [6] it was 100%. Further, the Activity in assay [7] worked out at 100%; in [8], 100%; in [9], 90%; in [10] it was 100%; in assay [11] it was 100%; in assay [12] it was 70%. Also, the Activity in assay [13] is on record as 40%.
Consider `Cc1cc(C)cc(C(=O)N(NC(=O)c2ccc3c(c2)OC(C)C3)C(C)(C)C)c1` (configuration not stated), for which the Activity in [1] is given as 100%; in [2] it was 100%; in assay [3] it was 100%; in assay [4], 100%; in [5], 70%; in [6], 100%. Also, the Activity in assay [7] came out at 100%; in assay [8], 100%; in [9], 90%; in [10], 80%; in assay [13] it was 60%.
Consider `Cc1cc2c(C(=O)NN(C(=O)c3ccccc3Cl)C(C)(C)C)cccc2o1`, for which the Activity in assay [1] was 0%.
Turning to `Cc1cc2c(C(=O)NN(C(=O)c3cccc(Cl)c3)C(C)(C)C)cccc2o1`, the Activity in [1] came to 0%.
In the case of `Cc1cc2c(C(=O)NN(C(=O)c3cc(Cl)cc(Cl)c3)C(C)(C)C)cccc2o1`, in assay [1], the Activity is recorded as 0%.
On to `Cc1cc2c(C(=O)NN(C(=O)c3cc([N+](=O)[O-])cc([N+](=O)[O-])c3)C(C)(C)C)cccc2o1`, for which, in assay [1], the Activity is listed as 0%.
With `Cc1cc(C)cc(C(=O)N(NC(=O)c2cccc3oc(C)cc23)C(C)(C)C)c1`, the Activity in [1] was 80%; in assay [6], 70%; in assay [10], 50%; in [13], 40%.
For the compound `Cc1cc(C)cc(C(=O)N(NC(=O)c2cccc3c2CC(C)O3)C(C)(C)C)c1` (configuration not stated), the Activity in assay [1] amounted to 100%; in assay [2], 100%; in assay [3] it was 100%; in [4], 100%; in assay [5], 60%; in assay [6], 100%. Also, the Activity stood at 100% in [7]; 100% in [8]; 80% in assay [9]; 100% in assay [10]; 100% in assay [11]; 50% in assay [12]. Moreover, the Activity in [13] came to 70%.
With `Cc1cc(C)cc(C(=O)N(NC(=O)c2cccc3c2OCO3)C(C)(C)C)c1`, the Activity in assay [1] is reported as 100%; in [2] it was 100%; in assay [3], 100%; in assay [4] it was 30%; in assay [6], 100%; in assay [7], 80%. For the same compound, the Activity is 0% in [10] and 30% in assay [13].
Consider `Cc1cc(C)cc(C(=O)N(NC(=O)c2cccc3c2OCCO3)C(C)(C)C)c1`, for which, in assay [1], the Activity is 0%.
For the compound `Cc1cc(C)cc(C(=O)N(NC(=O)c2cccc3c2CCCO3)C(C)(C)C)c1`, the Activity is reported as 30% in assay [1], 0% in assay [6], 0% in assay [10] and 0% in assay [13].
As for `Cc1cc(C)cc(C(=O)N(NC(=O)C2CCCC3OC(C)CC32)C(C)(C)C)c1` (configuration not stated), in assay [1], the Activity came out at 0%.
In the case of `Cc1cc(C)cc(C(=O)N(NC(=O)C2CCCCC2)C(C)(C)C)c1`, the Activity in [1] is 100%; in [2] it was 100%; in assay [3], 20%.
Consider `Cc1cc(C)cc(C(=O)N(NC(=O)c2ccc3c(c2C)CCCO3)C(C)(C)C)c1` [CHROMAFENOZIDE], for which the Activity in [1], in assay [2], in [3], in [4], in assay [5] and in assay [6] was 100% each time. Also, the Activity in assay [7], in assay [8], in assay [9], in assay [10], in assay [11] and in assay [12] was 100% each time. In assay [13], the Activity is given as 100%.
Regarding `Cc1cc(C)cc(C(=O)N(NC(=O)c2ccc3c(c2C)OC(C)C3)C(C)(C)C)c1` (configuration not stated) [FUXIAN], the Activity in assay [1], in assay [2], in [3], in assay [4], in assay [5] and in assay [6] was 100% each time. The Activity in assay [7] is recorded as 100%; in [8], 100%; in [9], 90%; in [10], 100%; in [11], 100%; in assay [12] it was 100%. The Activity in assay [13] is 100%.
As to `COc1cccc(C(=O)NN(C(=O)c2cc(C)cc(C)c2)C(C)(C)C)c1C` [METHOXYFENOZIDE], the Activity in [1], in [2], in [3], in [4], in assay [5] and in assay [6] was 100% each time. For the same compound, the Activity in assay [7], in assay [8], in assay [9], in assay [10], in [11] and in assay [12] was 100% in each case. Moreover, the Activity in assay [13] is listed as 100%.
